# Results as given in patent US11643636B2, “Method of creating human pluripotent stem cell derived brain pericyte-like cells” (Wisconsin Alumni Research Foundation, priority 2018, dated 2023).
# Tested on: hPSCs (H9 hESCs, IMR90C4 and CS03n2 iPSCs)
# Assay: Differentiation of hPSCs to NCSCs (p75-NGFR/HNK1 immunocytochemistry, flow cytometry)
# Type: cell-based, human
# Settings: CHIR99021 increased to 2 μM in E6-CSF, 15 days
# Experimental: We first assessed the capability of E6, a reduced factor medium, to support differentiation of H9 human embryonic stem cells (hESCs) and IMR90C4 and CS03n2 induced pluripotent stem cells (iPSCs) to NCSCs. H9 hESCs were cultured for 15 days in E6 medium supplemented with heparin and pathway modulators previously implicated in hPSC differentiation to NCSCs (48): 1 μM CHIR99021, a GSK3β inhibitor to promote WNT signaling; 10 μM SB431543, an ALK5 antagonist to inhibit Activin/Nodal/TGFβ signaling; and 10 ng/mL FGF2 (E6-CSF).
# To examine the effects of BMP inhibition on hPSC differentiation to NCSCs in minimal medium, E6-CSF medium was supplemented with 1 μM dorsomorphin, a BMP type I receptor inhibitor, to generate E6-CSFD.
# One day prior to initiating NCSC differentiation, hPSCs maintained in E8 medium were singularized using Accutase and seeded at 9.1×10^4 cells/cm^2 onto Matrigel coated plates with E8+10 μM Y27632. […]
# Cells were fixed fifteen minutes at room temperature with either 4% paraformaldehyde (PFA) or 100% ice-cold methanol depending on antibody staining conditions. Cells were rinsed three times in PBS without Ca^2+/Mg^2+ and stored at 4° C. in PBS until ready to stain. […]
smiles,measurement,value
Cc1c[nH]c(-c2cnc(NCCNc3ccc(C#N)cn3)nc2-c2ccc(Cl)cc2Cl)n1 [CHIR99021],induction of p75-NGFR expression,did not aid in inducing p75-NGFR expression
